The test addresses T1, OTUD3 (Homo sapiens, UniProt Q5T2D3).
T1 sequence (Q5T2D3 1-398): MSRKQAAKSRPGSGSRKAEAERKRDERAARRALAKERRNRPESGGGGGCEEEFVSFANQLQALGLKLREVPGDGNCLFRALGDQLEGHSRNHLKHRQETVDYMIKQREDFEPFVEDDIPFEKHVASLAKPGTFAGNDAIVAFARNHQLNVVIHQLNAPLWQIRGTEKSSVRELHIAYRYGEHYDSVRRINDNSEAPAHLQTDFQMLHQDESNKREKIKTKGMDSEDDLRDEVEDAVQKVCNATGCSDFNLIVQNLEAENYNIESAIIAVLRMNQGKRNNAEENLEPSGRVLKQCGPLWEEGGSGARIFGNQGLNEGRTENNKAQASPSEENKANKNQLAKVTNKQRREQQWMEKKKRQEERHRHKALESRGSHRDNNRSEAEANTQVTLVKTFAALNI
The experiment in a line: microscale thermophoresis (MST) with labeled OTUD3; supported by in vitro K48 di-ubiquitin cleavage assay with purified OTUD3 OTU (aa […]) at […] Rolapitant. In kind it is binding. Background: In MST a laser heats a spot of the sample, and binding alters the fluorescence response.

This note sets out measurements from PMC10967203, “Rolapitant treats lung cancer by targeting deubiquitinase OTUD3” (Cell Communication and Signaling : CCS, 2024).

Each structure is given as a SMILES string.

For `C[C@@H](OC[C@@]1(c2ccccc2)CC[C@]2(CCC(=O)N2)CN1)c1cc(C(F)(F)F)cc(C(F)(F)F)c1` [Rolapitant], the “microscale thermophoresis (MST) with labeled OTUD3; supported by in vitro K48 di” value was “MST (microscale thermophoresis) assays shown that OTUD3 could directly bind to Rolapitant in vitro”.
